The values that follow are results of earlier work, collected in patent US9155707B2, “Core-shell microspheres” (Agency for Science, Technology and Research, priority 2011, dated 2015).

For data set [1] the following is noted: reference line in FIG. 10.

With `CCCCN1CCCCC1C(=O)Nc1c(C)cccc1C` (stereo not drawn) [Bupivacaine, bupivacaine], the “toxic limit of drug permissible in the blood plasma” value in data set [1] was 4000 ng/mL. Regarding `O=c1[nH]cc(F)c(=O)[nH]1` [Fluorouracil (5-FU), Fluorouracil], the “solubility in water” value is reported as “not in water”. On to `O=S1(=O)OC(c2ccc(O)c(Cl)c2)(c2ccc(O)c(Cl)c2)c2ccccc21` [chlorophenol red (CR), chlorophenol red], for which the “solubility in water” value is “not very soluble in water”.
